Assay results as given in PubChem BioAssay (NCI).
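GI50 is the concentration that inhibits growth by half. Definition used: TGI = concentration required for complete inhibition of growth.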

What was measured:
Assay in all cases: growth of human tumour cells (NCI), 384-well format; in the data active = GI50 below about 0.43 µM; inactive = the rest
A549 NSCLC = test system: A549 NSCLC
CCRF-CEM leukemia = test system: CCRF-CEM leukemia
COLO 205 colon = test system: COLO 205 colon
DU-145 prostate = test system: DU-145 prostate
HL-60(TB) leukemia = test system: HL-60(TB) leukemia
HS 578T breast = test system: HS 578T breast
KM12 colon = test system: KM12 colon
M14 melanoma = test system: M14 melanoma
MALME-3M melanoma = test system: MALME-3M melanoma
MCF7 breast = test system: MCF7 breast
MDA-MB-468 breast = test system: MDA-MB-468 breast
MOLT-4 leukemia = test system: MOLT-4 leukemia
NCI-H23 lung = test system: NCI-H23 lung
NCI-H460 NSCLC = test system: NCI-H460 NSCLC
NCI-H522 lung = test system: NCI-H522 lung
RPMI-8226 leukemia = test system: RPMI-8226 leukemia
SK-MEL-5 melanoma = test system: SK-MEL-5 melanoma
SN12C renal = test system: SN12C renal
SNB-19 CNS = test system: SNB-19 CNS
SR leukemia = test system: SR leukemia
SW-620 colon = test system: SW-620 colon
TK-10 renal = test system: TK-10 renal

C[C@@H](CN1CC(=O)NC(=O)C1)N1CC(=O)NC(=O)C1
57.9 µM: TGI (MDA-MB-468 breast)
19.7 µM: TGI (RPMI-8226 leukemia)
17.2 µM: TGI (MOLT-4 leukemia)
4.68 µM: TGI (SR leukemia)
29.4 µM: TGI (CCRF-CEM leukemia)
18.4 µM: TGI (HL-60(TB) leukemia)
27.8 µM: TGI (COLO 205 colon)
inactive: GI50 (A549 NSCLC) 10.1 µM | GI50 (CCRF-CEM leukemia) 13.7 µM | GI50 (COLO 205 colon) 10.6 µM | GI50 (DU-145 prostate) 52.4 µM | GI50 (HL-60(TB) leukemia) 4.32 µM | GI50 (HS 578T breast) 21.2 µM | GI50 (KM12 colon) 91.7 µM | GI50 (M14 melanoma) 55.7 µM | GI50 (MALME-3M melanoma) 34.6 µM | GI50 (MCF7 breast) 77.7 µM | GI50 (MDA-MB-468 breast) 29.1 µM | GI50 (MOLT-4 leukemia) 5.07 µM | GI50 (NCI-H23 lung) 71.8 µM | GI50 (NCI-H460 NSCLC) 19.7 µM | GI50 (NCI-H522 lung) 53.9 µM | GI50 (RPMI-8226 leukemia) 3.65 µM | GI50 (SK-MEL-5 melanoma) 74.8 µM | GI50 (SN12C renal) 74.4 µM | GI50 (SNB-19 CNS) 96.1 µM | GI50 (SR leukemia) 2.15 µM | GI50 (SW-620 colon) 83.4 µM | GI50 (TK-10 renal) 68 µM
